Results: PubChem BioAssay AID2305 (GlaxoSmithKline (GSK), 2010)
pIC50: −log10 of the molar value.

Test system: P. falciparum 3D7 growth, pLDH absorbance
Assay: P. falciparum 3D7 growth inhibition, dose response, strain 3D7 (AID 2305)

Point of comparison: `CC(CN1CCN(C)CC1)C(=O)Nc1ccc(-c2csc(-c3nc4ccccc4[nH]3)c2)cc1` (stereo not given), pIC50 6.08. Against it:
- CCOc1ccc2c(NN=Cc3ccccc3F)cc(C)nc2c1 — within 0.2 log units, 6.17
- CC(Cc1ccc(CN(CC(N)=O)Cc2ccc(CC(C)NCCc3cccc(Cl)c3)cc2)cc1)NCCc1cccc(Cl)c1 (stereo not given) — within 0.2 log units, 6.17
- O=C(Cn1c(CCc2cccc(F)c2F)nc(=O)c2ccccc21)N(Cc1ccc(-c2ccc(C(F)(F)F)cc2)cc1)C1CCN(C2=NCCS2)CC1 — 0.20 log units lower, 5.88
- O=C(NCCCCCN1CCC(c2c[nH]c3ccccc23)CC1)c1ccc(-c2ccccc2)nc1 — within 0.2 log units, 5.99
- CC[C@H](C)CNC(=O)c1cncc(-c2ccc(CNC3Cc4ccccc4C3)cc2)c1 — the same, 6.08
- Cc1cc(NC(=O)Nc2ccc3ccn(C)c3c2)c2ccccc2n1 — 0.60 log units higher, 6.68
- CC(C)C[C@@H](/C=N/N1CCOC1=O)NC(=O)[C@H](CC(C)C)NC(=O)c1ccc(OCCN2CCOCC2)cc1 — 0.58 log units higher, 6.66
- CN1CCCN(Cc2ccc(-c3cccc(NC(=O)c4ccc(Cl)cc4)c3)cc2)CC1 — within 0.2 log units, 6.21
- O=C(NCCc1ccccc1)N(Cc1ccccc1-c1ccc(CNCCc2ccccc2)cc1)C1CCN(Cc2ccccc2)CC1 — within 0.2 log units, 6.14
- COc1cccc(CC(=O)NC2CCN(c3ccnc4cc(Cl)ccc34)C2)c1 (stereo not given) — within 0.2 log units, 6.15
- Cn1c(=O)c2cc(C(=O)NCCCN3CCCCCC3)sc2c2ccccc21 — within 0.2 log units, 6.16
- CC(C)CCNc1nc(NCCc2ccccc2)c2cc(O)ccc2n1 — 0.54 log units higher, 6.62
- CCc1nc2nc(C)cc(Nc3ccc(F)c(Cl)c3)n2n1 — within 0.2 log units, 6.01
- c1ccc(CCNCc2ccc(-c3cccc(-c4nc5ccccc5[nH]4)c3)cc2)nc1 — within 0.2 log units, 6.21
- CCOc1ccccc1C(=O)Nc1cccc(-c2nc3ncccn3c2C)c1 — within 0.2 log units, 6.07
- O=C(Nc1ccc(-c2ccc(-c3nc4ccc(C(F)(F)F)cc4[nH]3)s2)cc1)c1cnc[nH]1 — within 0.2 log units, 6.17
- COc1ccc(NC(=S)NC(NC(=O)CF)C(Cl)(Cl)Cl)cc1[N+](=O)[O-] (stereo not given) — 0.24 log units higher, 6.32
- FC(F)(F)c1ccc2c(NCCc3ccccc3)ccnc2c1 — within 0.2 log units, 5.90
- NC1=NC(c2ccccc2)N(c2ccccc2)C(N)=N1 (stereo not given) — 0.46 log units higher, 6.54
- CCCCCC(C)C(C)c1cc(O)c2c(c1)OC(C)(C)CC2(O)c1ccccn1 (stereo not given) — within 0.2 log units, 6.13
- c1cc(-c2ccc(CNC3CC3)cc2)cc(-c2nc3ccccc3[nH]2)c1 — 0.30 log units lower, 5.78
- O=C(Nc1ccc(-c2nc3ccccc3[nH]2)cc1)C1CCCN(C2CCC2)C1 (stereo not given) — 0.21 log units lower, 5.87
- O=C(NC1CCN(c2ccnc3cc(Cl)ccc23)C1)c1ccc(F)cc1F (stereo not given) — 0.35 log units higher, 6.43
- O=C(Nc1cccc(CN2CCN(Cc3ccc(O)cc3)CC2)c1)c1cccc(C(F)(F)F)c1 — within 0.2 log units, 5.92
- COc1ccccc1C1CCN(C2CCC(NC(=O)/C=C/c3cccc(Cl)c3F)CC2)CC1 (stereo not given) — within 0.2 log units, 5.89
- CCCNCc1ccc(-c2ccc(CN(C(=O)c3nn(-c4ccccc4)nc3C)C3CC3)cc2)nc1 — 0.60 log units higher, 6.68
- COc1ccc(-c2ccc(NC(=O)c3ccc(Cl)cc3)cc2)cc1CN1CCNCC1 — 0.81 log units higher, 6.89
- Cc1cc(NCCc2ccccc2)nc(/N=C(\N)Nc2cccc(F)c2)n1 — within 0.2 log units, 6.05
- NC(=O)c1cccc(C(=O)Nc2cccc(-c3cccc(-c4nc5ccc(C(F)(F)F)cc5[nH]4)c3)c2)c1 — 0.81 log units higher, 6.89
- CCCc1cc(NC2CCN(C)CC2)nc(Nc2ccc(F)cc2)n1 — within 0.2 log units, 6.10
- c1ccc2c(NCCCCCCCNc3ccnc4ccccc34)ccnc2c1 — 0.69 log units higher, 6.77
- CN(C)CCCN1CCN(C(=O)c2cccc(-c3noc(C(F)(F)F)n3)c2)CC1 — 0.38 log units higher, 6.46
- CC(C)(C)c1ccc(NC(=O)c2cccc(CN3CCCN(Cc4cccc(O)c4)CC3)c2)cc1 — within 0.2 log units, 6.26
- Cc1cc(C)cc(Oc2c(C(F)(F)F)oc3c(CN4CC(C)OC(C)C4)c(O)ccc3c2=O)c1 (stereo not given) — within 0.2 log units, 6.03
- CC1CCN(CC[C@H]2CCCN2S(=O)(=O)c2cccc(NC(=O)Nc3ccc(C(F)(F)F)cc3)c2)CC1 — within 0.2 log units, 6.14
- COc1ccc2nccc([C@@H](O)CN3CCC(NCc4cc5cc(C)ccc5s4)CC3)c2c1 — within 0.2 log units, 6.19
- O=C(Nc1ccc(-c2ccc(-c3nc4ccccc4[nH]3)cc2)cc1)Nc1ccc(Cl)c(Cl)c1 — 0.92 log units higher, 7.00
- CC(=O)C=C1CC(=O)N(C[C@@H](O)[C@H]2O[C@@H]3OC(C)(C)O[C@@H]3[C@H]2O)c2ccccc2N1 — within 0.2 log units, 5.90
- O=C(Nc1ccc(CN2CCOCC2)cc1)c1ccc(-c2ccc(Br)cc2)o1 — within 0.2 log units, 5.95
- Oc1ccc2ccccc2c1C=NNc1nc(Nc2ccccc2)nc(Nc2ccccc2)n1 — within 0.2 log units, 6.17
- CCOC(=O)c1ccc2nc(-c3ccc(C(=O)NCc4ccc(C(C)(C)C)cc4)cc3)[nH]c2c1 — within 0.2 log units, 6.07
- COc1ccccc1CN1CCC(CNC(=O)c2cc(-c3cccc(C(F)(F)F)c3)cs2)C1 (stereo not given) — 0.20 log units lower, 5.88
- CCCCNC(=O)[C@H](Cc1ccccc1)NC(=O)c1ccc(O)c(-c2ccc(Cl)c(Cl)c2)c1 — 0.20 log units higher, 6.28
- Cc1noc(C)c1-c1ccc2c(Nc3ccc(C(F)(F)F)cc3)c(C(N)=O)cnc2c1 — 0.41 log units higher, 6.49
- CC1CC(NCCCNc2cc(=O)c3ccccc3[nH]2)c2c1cc(Cl)c(Cl)c2Cl (stereo not given) — the same, 6.08
- O=C1Nc2cccc3c2C1(CCCCN1CCC(c2c(-c4ccccc4)[nH]c4ccccc24)CC1)CCC3 (stereo not given) — within 0.2 log units, 5.92
- Cc1cc(Nc2cccc(C(F)(F)F)c2)nc(Nc2cccc(C(F)(F)F)c2)n1 — within 0.2 log units, 6.19
- C=CCOC(=O)N1CCC(CNCc2ccc(-c3ccc(-c4nc5ccc(C(F)(F)F)cc5[nH]4)cc3)cc2)C1 (stereo not given) — 0.74 log units higher, 6.82
- CCCCN=C(N)c1ccc(OCCCCCOc2ccc(C(N)=NCCCC)cc2)cc1 — 0.88 log units higher, 6.96
- CCCNCc1ccc(-c2ccc(CN(CCOC)C(=O)COc3ccccc3Cl)cc2)nc1 — within 0.2 log units, 6.04
- Cc1[nH]c(C)c(-c2ccc(Oc3ccc(C(F)(F)F)cc3)cc2)c(=O)c1Br — 0.60 log units higher, 6.68
- CNCC(O)c1cc(Cl)c(Cl)cc1C (stereo not given) — within 0.2 log units, 6.04
- Cc1ccc(CN2CCCN(Cc3ccc(C(=O)Nc4ccc(Cl)cc4)cc3)CC2)s1 — within 0.2 log units, 5.95
- CN(C)c1ccc(-c2ccc(C(=O)NC3CCN(Cc4ccccc4F)CC3)s2)cc1 — 0.23 log units lower, 5.85
- COc1cc(N)c(Cl)cc1C(=O)NC1CCC(NCC2CCCCC2)CC1 (stereo not given) — 0.29 log units higher, 6.37
- Cc1ccc(S(=O)(=O)Nc2ccc(Nc3nccc(Nc4cccc5[nH]ncc45)n3)cc2)cc1 — within 0.2 log units, 6.02
- COc1ccc(CNCC(C)(C)c2nc(-c3ccc(Cl)c(O)c3)c(-c3ccncc3)[nH]2)cc1 — 0.36 log units higher, 6.44
- O=C(c1cccc(COc2ccc3c(c2)CCN(C2CCCC2)CC3)c1)N1CCN(c2ccncc2)CC1 — within 0.2 log units, 6.13
- CCCCCCn1c2c(c(=N)c3c1CCC3)CCCC2 — 0.46 log units higher, 6.54
- O=C(Nc1ccncc1)c1cc(C(=O)Nc2ccncc2)cc([N+](=O)[O-])c1 — within 0.2 log units, 6.21
- CCN(CC)CCCN(CCCN(CC)CC)c1cc(C)nc(Nc2ccc(Br)cc2)n1 — 0.62 log units higher, 6.70
- COc1cc(C2C(Oc3ccccc3)C(=O)N2Cc2ccc(F)cc2)cc(OC)c1OC (stereo not given) — within 0.2 log units, 6.02
- CN(C)c1ccc(-c2ccc(C(=O)NC3CCN(Cc4cccc(C(F)(F)F)c4)CC3)s2)cc1 — within 0.2 log units, 6.00
- Cc1cc(C2CCN(CCCCNC(=O)c3ccc(NC(=O)c4ccc(Cl)cc4)cc3)CC2)c(C)cc1OC(C)C — within 0.2 log units, 6.13
- C=CCn1c(Cc2ccccc2)nnc1Sc1ccc(C#N)c([N+](=O)[O-])c1 — within 0.2 log units, 5.99
- COc1cc(CNc2ncc(-c3ccsc3)c(-c3nccs3)n2)cc(OC)c1 — 0.81 log units higher, 6.89
- Fc1ccc2nc(-c3ccc(-c4cccc(CN5CCCCC5)c4)cc3)[nH]c2c1 — 0.49 log units higher, 6.57
- CCOc1ccc2c(NN=Cc3cc(OC)c(OC)cc3OC)cc(C)nc2c1 — within 0.2 log units, 6.00
- CCNc1cc(C(=O)N[C@@H](Cc2ccccc2)[C@H](O)CN[C@@H](C)c2ccccc2)cc(N2CCCC2=O)c1 — within 0.2 log units, 6.17
